Three compounds from ChEMBL document CHEMBL1201862, “PubChem BioAssay data set” (2004) can be followed below.

Structures are written as SMILES. The source made the active and inactive calls.

The subject of assay [1] is Streptococcus sp. 'group A'. As to the kind of experiment: growth inhibition of control SK(-) GAS strain, dose response, counter-screen for streptokinase expression inhibitor project, luminescence, kanamycin, BacTiterGlo, confirmation (AID 1900). In kind it is functional, organism-based. On the technique in general: Counterscreens check selectivity or assay interference.

Another assay has as its system Streptococcus. Nature of the assay: Group A Streptococcus viability loss, dose response, counter-screen for streptokinase expression inhibitor project, luminescence, BacTiterGlo (AID 1915).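 Further: potency for reduction of bacterial viability or growth.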 In kind it is functional, organism-based.
For assay [2], the target named is T1, Ubiquitin-conjugating enzyme E2 N (Homo sapiens, UniProt P61088).
T1 sequence (P61088 whole entry): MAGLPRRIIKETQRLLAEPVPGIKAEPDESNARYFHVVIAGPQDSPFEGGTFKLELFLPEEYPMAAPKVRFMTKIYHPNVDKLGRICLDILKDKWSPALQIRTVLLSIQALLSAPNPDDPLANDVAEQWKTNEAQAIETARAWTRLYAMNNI
In kind it is functional.

Assay [3] has as its target T2, Replicative DNA helicase DnaB (Mycobacterium tuberculosis, UniProt P9WMR3).
T2 sequence (P9WMR3 whole entry): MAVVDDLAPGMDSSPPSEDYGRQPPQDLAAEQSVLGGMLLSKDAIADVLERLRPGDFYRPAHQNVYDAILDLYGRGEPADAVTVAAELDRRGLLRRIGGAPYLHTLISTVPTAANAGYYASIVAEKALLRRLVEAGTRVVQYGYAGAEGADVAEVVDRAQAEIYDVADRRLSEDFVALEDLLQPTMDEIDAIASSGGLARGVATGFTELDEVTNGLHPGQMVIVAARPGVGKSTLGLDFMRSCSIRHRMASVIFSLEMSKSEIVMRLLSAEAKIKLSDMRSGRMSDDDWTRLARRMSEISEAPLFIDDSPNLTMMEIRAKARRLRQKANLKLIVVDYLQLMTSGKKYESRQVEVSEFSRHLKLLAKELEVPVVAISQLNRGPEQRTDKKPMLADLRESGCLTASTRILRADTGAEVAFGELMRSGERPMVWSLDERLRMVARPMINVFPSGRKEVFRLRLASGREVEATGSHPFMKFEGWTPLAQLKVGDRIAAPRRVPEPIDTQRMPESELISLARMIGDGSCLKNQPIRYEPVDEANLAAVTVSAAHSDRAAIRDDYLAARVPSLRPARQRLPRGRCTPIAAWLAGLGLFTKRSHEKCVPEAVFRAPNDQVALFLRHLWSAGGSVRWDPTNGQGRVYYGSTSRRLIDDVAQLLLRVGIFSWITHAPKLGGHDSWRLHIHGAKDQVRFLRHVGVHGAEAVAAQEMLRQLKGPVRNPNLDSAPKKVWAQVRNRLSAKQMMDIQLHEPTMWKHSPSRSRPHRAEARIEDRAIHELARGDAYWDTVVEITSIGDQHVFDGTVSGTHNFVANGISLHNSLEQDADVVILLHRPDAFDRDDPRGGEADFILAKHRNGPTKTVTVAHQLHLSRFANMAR
Nature of the assay: DnaB intein splicing inhibitors, dose response, biochemical, cell-free fluorescence (AID 449749). The format is functional.

The next assay has as its target T3, Protein RecA (Mycobacterium tuberculosis, UniProt P9WHJ3).
T3 sequence (P9WHJ3 whole entry): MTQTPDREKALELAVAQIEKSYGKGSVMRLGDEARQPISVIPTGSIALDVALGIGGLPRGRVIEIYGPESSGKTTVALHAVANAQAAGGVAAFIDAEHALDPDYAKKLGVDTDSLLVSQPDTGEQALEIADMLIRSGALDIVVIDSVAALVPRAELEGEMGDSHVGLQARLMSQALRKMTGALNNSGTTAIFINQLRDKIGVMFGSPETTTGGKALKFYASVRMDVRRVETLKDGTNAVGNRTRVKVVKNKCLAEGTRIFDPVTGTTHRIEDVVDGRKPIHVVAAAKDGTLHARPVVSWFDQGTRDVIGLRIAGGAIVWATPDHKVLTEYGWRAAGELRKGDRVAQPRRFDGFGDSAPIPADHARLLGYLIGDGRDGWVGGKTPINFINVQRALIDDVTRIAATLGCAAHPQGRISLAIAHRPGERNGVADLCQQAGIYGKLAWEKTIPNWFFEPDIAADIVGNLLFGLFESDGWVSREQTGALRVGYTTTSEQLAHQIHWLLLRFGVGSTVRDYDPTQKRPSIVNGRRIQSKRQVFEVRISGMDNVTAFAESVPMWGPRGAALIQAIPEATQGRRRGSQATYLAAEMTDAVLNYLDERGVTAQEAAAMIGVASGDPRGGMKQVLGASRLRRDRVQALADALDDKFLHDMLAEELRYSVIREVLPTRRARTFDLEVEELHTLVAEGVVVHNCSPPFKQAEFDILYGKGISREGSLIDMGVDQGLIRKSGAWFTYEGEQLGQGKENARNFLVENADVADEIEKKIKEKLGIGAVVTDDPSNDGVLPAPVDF
Nature of the assay: Fluorescence Cell-Free Homogeneous Dose Retest to Identify Inhibitors of RecA-Intein Splicing Activity. [Related pubchem assays (depositor defined):AID2097, AID2223, AID489010, AID492950]. In kind it is functional.

Assay [4] can be described thus: off-target signal loss in HeLa-CEM21 co-culture – HeLa F-luc CTL cells, cherry-picked, counter-screen for HIV-1 Env fusion inhibitor project, dose response (AID 652040).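 Further: potency for signal decrease marking cytotoxic or nonspecific inhibition.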 The format is functional, cell-based.
The target of the next assay is Genome polyprotein (dengue virus type 2, UniProt P29990). Nature of the assay: Dengue-2 NS5 methyltransferase inhibitors, primary screen, biochemical, confirmation dose response (AID 588689). The format is functional.
In a further assay the target is Fatty acid synthase (Homo sapiens, UniProt P49327). As to the kind of experiment: FAS thioesterase domain inhibitors, dose response, biochemical, kinetic fluorescence intensity (AID 624326).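 Further: rate of fluorescence rise from hydrolysis of a fluorogenic O-methyl fluorescein ester substrate.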 The format is functional.
A further assay has as its target T4, Caspase-6 (Homo sapiens, UniProt P55212).
T4 sequence (P55212 whole entry): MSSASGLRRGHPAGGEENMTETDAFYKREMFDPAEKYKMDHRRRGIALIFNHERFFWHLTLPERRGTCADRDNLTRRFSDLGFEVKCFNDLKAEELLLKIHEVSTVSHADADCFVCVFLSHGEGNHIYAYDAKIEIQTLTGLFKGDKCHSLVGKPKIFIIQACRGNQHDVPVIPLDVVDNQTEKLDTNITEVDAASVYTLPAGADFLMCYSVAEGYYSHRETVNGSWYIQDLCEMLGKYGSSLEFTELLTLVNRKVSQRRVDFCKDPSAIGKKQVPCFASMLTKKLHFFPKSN
As to the kind of experiment: human caspase-6 inhibitors, dose response, biochemical, VEID-R110 fluorescence, cherry-pick (AID 720632).

For the next assay, the target named is Caspase-9 (Homo sapiens, UniProt P55211). Nature of the assay: caspase-9 enzyme inhibition, dose response, selectivity assay for caspase-6 inhibitor project, biochemical, fluorescence, plate reader, cherry-picked samples (AID 743293).
Chain of Caspase-9 (P55211 1-315 limits assumed): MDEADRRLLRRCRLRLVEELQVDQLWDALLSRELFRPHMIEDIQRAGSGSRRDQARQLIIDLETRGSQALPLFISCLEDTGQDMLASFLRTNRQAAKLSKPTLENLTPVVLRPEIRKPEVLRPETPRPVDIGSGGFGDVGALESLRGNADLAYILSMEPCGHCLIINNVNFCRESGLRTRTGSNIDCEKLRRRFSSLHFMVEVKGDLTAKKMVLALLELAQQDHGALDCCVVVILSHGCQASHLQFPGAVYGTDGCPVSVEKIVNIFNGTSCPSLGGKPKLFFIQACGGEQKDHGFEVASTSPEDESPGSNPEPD
Chain of Caspase-9 (P55211 331-416 limits assumed): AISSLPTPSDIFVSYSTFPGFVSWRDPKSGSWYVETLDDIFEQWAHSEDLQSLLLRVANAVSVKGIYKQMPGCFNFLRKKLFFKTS

Chain of Fatty acid synthase (P49327 whole entry, the tested form may be a part): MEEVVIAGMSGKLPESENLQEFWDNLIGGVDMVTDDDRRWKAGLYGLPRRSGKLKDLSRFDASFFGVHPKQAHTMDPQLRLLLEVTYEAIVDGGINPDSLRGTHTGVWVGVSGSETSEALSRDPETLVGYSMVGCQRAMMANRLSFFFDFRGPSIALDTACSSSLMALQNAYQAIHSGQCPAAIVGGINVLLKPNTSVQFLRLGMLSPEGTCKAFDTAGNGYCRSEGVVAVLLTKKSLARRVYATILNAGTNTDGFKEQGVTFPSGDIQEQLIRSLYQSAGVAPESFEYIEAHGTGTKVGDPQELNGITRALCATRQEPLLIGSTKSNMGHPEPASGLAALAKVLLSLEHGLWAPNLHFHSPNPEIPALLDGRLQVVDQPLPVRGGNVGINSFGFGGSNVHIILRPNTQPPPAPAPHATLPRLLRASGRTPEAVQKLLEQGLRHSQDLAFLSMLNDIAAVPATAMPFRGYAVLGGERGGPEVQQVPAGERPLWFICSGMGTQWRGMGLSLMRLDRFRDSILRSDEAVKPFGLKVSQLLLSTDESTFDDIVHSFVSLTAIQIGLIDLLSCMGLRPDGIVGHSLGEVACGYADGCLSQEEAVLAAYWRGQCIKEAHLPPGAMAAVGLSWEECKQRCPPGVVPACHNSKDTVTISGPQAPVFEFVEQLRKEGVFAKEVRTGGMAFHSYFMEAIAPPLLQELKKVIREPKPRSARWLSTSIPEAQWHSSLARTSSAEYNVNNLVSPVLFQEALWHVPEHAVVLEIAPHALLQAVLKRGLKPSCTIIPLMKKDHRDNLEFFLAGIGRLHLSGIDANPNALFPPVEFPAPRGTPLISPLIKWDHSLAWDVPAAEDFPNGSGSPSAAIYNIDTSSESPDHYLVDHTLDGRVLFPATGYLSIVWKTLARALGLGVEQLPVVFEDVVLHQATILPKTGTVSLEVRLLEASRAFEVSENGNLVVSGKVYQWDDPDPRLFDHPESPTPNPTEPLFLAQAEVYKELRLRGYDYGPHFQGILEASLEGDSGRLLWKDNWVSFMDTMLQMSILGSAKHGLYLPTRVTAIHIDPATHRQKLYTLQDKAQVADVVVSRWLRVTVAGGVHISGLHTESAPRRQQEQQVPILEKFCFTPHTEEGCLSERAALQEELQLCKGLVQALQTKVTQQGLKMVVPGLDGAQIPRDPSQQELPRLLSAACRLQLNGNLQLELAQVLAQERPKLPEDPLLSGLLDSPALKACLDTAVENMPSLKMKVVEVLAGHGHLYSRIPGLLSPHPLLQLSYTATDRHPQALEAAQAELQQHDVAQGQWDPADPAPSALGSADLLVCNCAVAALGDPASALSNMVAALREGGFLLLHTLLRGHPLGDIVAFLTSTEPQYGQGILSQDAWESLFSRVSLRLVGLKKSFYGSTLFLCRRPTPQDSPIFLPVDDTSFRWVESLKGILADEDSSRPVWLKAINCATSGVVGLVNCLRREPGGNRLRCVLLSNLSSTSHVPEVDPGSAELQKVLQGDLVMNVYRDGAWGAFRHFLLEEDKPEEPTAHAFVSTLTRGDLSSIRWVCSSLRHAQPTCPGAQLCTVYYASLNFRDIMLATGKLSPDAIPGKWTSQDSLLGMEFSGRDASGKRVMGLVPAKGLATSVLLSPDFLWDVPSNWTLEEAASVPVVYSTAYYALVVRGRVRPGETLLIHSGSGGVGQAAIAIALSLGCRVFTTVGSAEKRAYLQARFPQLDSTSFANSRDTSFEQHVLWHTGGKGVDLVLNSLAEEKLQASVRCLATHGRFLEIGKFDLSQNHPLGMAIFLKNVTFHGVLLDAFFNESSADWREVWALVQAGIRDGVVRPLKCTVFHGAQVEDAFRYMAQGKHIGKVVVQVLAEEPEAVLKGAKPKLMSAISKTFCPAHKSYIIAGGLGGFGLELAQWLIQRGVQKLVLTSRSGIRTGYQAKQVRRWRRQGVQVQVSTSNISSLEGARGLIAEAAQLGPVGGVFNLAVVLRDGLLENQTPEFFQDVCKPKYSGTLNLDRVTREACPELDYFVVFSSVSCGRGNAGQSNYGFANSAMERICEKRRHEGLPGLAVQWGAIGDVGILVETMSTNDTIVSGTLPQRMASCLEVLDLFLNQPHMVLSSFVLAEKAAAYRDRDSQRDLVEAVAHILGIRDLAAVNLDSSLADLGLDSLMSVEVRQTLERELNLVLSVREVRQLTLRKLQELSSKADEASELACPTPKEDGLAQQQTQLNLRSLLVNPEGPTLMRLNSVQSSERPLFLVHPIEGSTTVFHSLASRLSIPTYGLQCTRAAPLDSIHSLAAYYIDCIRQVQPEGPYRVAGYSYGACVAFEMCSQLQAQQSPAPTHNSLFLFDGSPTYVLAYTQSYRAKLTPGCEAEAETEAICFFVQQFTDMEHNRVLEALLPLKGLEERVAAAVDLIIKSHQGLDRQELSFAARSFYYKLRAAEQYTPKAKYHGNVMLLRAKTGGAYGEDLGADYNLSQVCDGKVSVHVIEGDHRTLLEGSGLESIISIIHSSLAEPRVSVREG
Chain of Genome polyprotein (P29990 2492-3391 limits assumed): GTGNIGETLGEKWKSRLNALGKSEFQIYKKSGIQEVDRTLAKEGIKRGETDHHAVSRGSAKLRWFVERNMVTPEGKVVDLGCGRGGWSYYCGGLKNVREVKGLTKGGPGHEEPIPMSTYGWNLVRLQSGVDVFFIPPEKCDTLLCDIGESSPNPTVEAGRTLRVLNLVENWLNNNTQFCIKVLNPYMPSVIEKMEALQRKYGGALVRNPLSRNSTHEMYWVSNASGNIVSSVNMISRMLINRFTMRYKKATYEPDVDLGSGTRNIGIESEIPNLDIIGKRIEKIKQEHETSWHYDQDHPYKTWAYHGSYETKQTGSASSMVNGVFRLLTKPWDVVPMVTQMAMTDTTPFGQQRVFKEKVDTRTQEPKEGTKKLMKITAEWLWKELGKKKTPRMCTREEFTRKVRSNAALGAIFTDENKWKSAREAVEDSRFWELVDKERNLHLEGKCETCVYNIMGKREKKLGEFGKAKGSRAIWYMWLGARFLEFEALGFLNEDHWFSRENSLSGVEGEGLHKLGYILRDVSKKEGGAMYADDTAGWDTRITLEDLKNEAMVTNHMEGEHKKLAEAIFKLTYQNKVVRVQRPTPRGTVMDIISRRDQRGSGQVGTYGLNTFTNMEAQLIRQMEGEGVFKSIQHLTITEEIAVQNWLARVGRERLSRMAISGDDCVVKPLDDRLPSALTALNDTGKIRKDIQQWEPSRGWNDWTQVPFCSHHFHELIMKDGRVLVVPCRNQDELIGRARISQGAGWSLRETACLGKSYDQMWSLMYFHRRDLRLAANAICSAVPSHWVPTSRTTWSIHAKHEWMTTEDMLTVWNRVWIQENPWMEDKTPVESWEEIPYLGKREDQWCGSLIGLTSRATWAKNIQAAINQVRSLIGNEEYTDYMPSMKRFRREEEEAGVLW

By EC50 is commonly meant the midpoint of the concentration-response curve. As a reminder, the IC50 is the concentration at which inhibition is half-maximal. The term AC50 denotes the midpoint of the concentration-response curve, whichever way the signal moves. As for `CCCCCCCCCCOC(=O)C[n+]1c(COc2ccccc2OC)n(C)c2ccccc21`, the EC50 was 6.69 µM (active) in [1], 12.7 µM (active) in the assay with Streptococcus and 8.91 µM (active) on Protein RecA. The IC50 in assay [2] was 15.1 µM (active). Moreover, the figures for the AC50 in assay [3] and in assay [4] were 3.92 µM (active) and 12.3 µM (active), respectively.

As for `Cc1oc2c(c1C(=O)NCc1cccnc1)C(=O)c1ccccc1C2=O`, the EC50 in [1] was 1.31 µM (active); in the assay with Streptococcus, 2.56 µM (active); on Protein RecA, 0.0639 µM (active). For the same compound, in assay [3], the half-maximal activity concentration (AC50) was 0.438 µM (active).

For `O=c1ccc2c(-c3ccccc3S(=O)(=O)O)c3ccc(O)c(O)c3oc-2c1O` [PYROGALLOL RED], the IC50 is 4.06 µM (active) on Genome polyprotein and 10.4 µM (active) on Fatty acid synthase. The results for the AC50 at Caspase-6 and at Caspase-9 were 0.192 µM (active) and > 70 µM (inactive), respectively.
